Tested on: T1, TsCF1 (cathepsin F-like protease)
T1 construct: gene Tsp_02382
Test: fluorescence endpoint assay, Z-Phe-Arg-AMC hydrolysis at pH […] min preincubation with inhibitor
Assay type: biochemical, Trichinella spiralis

Structure (SMILES): CC(C)C[C@H](NC(=O)[C@H]1O[C@@H]1C(=O)O)C(=O)NCCCCN=C(N)N [E-64]
- IC50: 136 ± 16.9 nM

Reference: paper PMC4687129, “Molecular characterization of a cathepsin F-like protease in Trichinella spiralis” (Parasites & Vectors, 2015)
